Reference: BigSolDB 2.1

O=C(N[C@@H](CO)C(=O)O)OCc1ccccc1
solubility (mole fraction)
Settings | 283.15 K | 288.15 K | 293.15 K | 298.15 K | 303.15 K | 308.15 K | 313.15 K | 318.15 K | 323.15 K
in 2-butanone | 0.0333 | 0.037 | 0.0404 | 0.0456 | 0.052 | 0.0604 | 0.0726 | 0.0946 | 0.115
in acetone | 0.0708 | 0.0762 | 0.0835 | 0.0955 | 0.11 | 0.127 | 0.15 | 0.176 | 0.205
in acetonitrile | 0.00705 | 0.00841 | 0.00993 | 0.0126 | 0.0161 | 0.0213 | 0.0276 | 0.0385 | 0.0625
in ethyl acetate | 0.0143 | 0.0163 | 0.0189 | 0.0217 | 0.0257 | 0.0296 | 0.0353 | 0.0429 | 0.0541
in isobutanol | 0.0221 | 0.0246 | 0.0296 | 0.0365 | 0.0443 | 0.0552 | 0.0665 | 0.0912 | 0.115
in isopropanol | 0.0443 | 0.0505 | 0.0591 | 0.0707 | 0.0841 | 0.103 | 0.123 | 0.152 | 0.185
in methyl acetate | 0.0215 | 0.0262 | 0.0318 | 0.0365 | 0.0418 | 0.0477 | 0.0536 | 0.0635 | 0.0804
in n-butanol | 0.0279 | 0.0313 | 0.0388 | 0.0463 | 0.0562 | 0.067 | 0.0821 | 0.102 | 0.137
in n-pentanol | 0.0265 | 0.0286 | 0.0331 | 0.039 | 0.0455 | 0.0542 | 0.0628 | 0.0854 | 0.112
in n-propanol | 0.0496 | 0.0567 | 0.0645 | 0.0722 | 0.0838 | 0.0956 | 0.11 | 0.127 | 0.175
in sec-butanol | 0.0335 | 0.0385 | 0.0471 | 0.0585 | 0.0715 | 0.0862 | 0.109 | 0.13 | 0.159
in water | 0.00097 | 0.00116 | 0.00133 | 0.00165 | 0.002 | 0.00247 | 0.00309 | 0.00448 | 0.00737
